A melting point compilation (Tetko et al.; mined from patent text by program, amines drawn as free bases though some values may be those of a salt)

Structure (SMILES) | melting point [°C]
O=C(Cc1cccc(C(F)(F)F)c1)c1c(O)c2cccnc2n(-c2ccccc2)c1=O | 201 to 203
O=C(CC(=O)c1ccc(C(=O)CC(=O)c2ccccc2)cc1)c1ccccc1 | 175 to 177
Cc1ccc(CSc2nc3cc4c(cc3[nH]2)C(C)(C)CCC4(C)C)nc1 | 187 to 188
CN1C(=O)N(c2ccc([N+](=O)[O-])c(C(F)(F)F)c2)C(=O)C1(C)C | 116
Cn1nc(Cl)cc(Br)c1=O | 107 to 108
COc1cc(CCCC2OC(=O)NC2=O)cc(OC)c1O (stereo not drawn) | 155 to 156
O=C(O)c1ccc(-c2ccc3cc(O)c(C45CC6CC(CC(C6)C4)C5)cc3c2)cc1 | 295 to 300
O=[N+]([O-])c1cccnc1Nc1ccc(F)cc1F | 110
Cc1ncccc1CC(=NC#N)NC(NC(=O)Cc1ccc2ncccc2c1)C(C)(C)C (stereo not drawn) | 132 to 134
Nn1ccn(C2CCc3ccccc3C2)c1=S (stereo not drawn) | 187 to 189
CC(C)N(CCCc1ccccc1)[C@H]1CC[C@H](c2ccc(O)cc2)CC1 | 146 to 154
CCCNC(=S)NS(=O)(=O)c1cc2c(cc1OC)OCC(NC(=O)c1cc(F)ccc1OC)C2 (stereo not drawn) | 172 to 173
O=C(Oc1ccccc1)N1CCC(Sc2ccccc2F)CC1 | 58 to 60
O=C(O)CCC/C=C\[C@@H]1C[C@@H](NS(=O)(=O)c2ccccc2)CN1S(=O)(=O)c1ccc(Cl)cc1 | 121 to 123
Cc1cc(C)cc(C(=O)OCC2(N3CCN(C(=O)OC(C)(C)C)CC3)Cc3ccccc3C2)c1 | 139
CCCCC(=O)c1ccc(OCC(=O)O)c(Cl)c1Cl | 110 to 113
O=C(c1ccccc1F)C1CCN(C(=O)Oc2ccccc2)CC1 | 95 to 96
CCOC(=O)c1[nH]c2cc(Cl)cc(Cl)c2c1NCC(=O)c1ccccc1F | > 290
Cc1csc(NC(=O)C(C(=O)OC(C)C)=C2SCCS2)n1 | 161 to 162
O=C(C=Cc1ccc(F)cc1)C1CCCCC1 | 44 to 46
O=C(Nc1cccc2cc(C(=O)N3CCCCC3)[nH]c12)c1cccs1 | 131 to 132
CCCCCCC(C)(C)c1ccc(C2=CCCN(CC3CC3)C2)c(O)c1 | 118
Cc1cc(Cn2nnc(C(N)=O)c2N)cc(Cl)c1C(=O)c1ccc(C(F)(F)F)cc1 | 201 to 202
CCOC(=O)c1c[nH]c2cc(C(=O)NC3CCN(Cc4ccccc4)CC3)nn2c1=O | 264 to 266
N#Cc1c(-c2ccccc2)cc(-c2ccccc2)nc1N | 170 to 174
COc1ccc(CCNc2cc(-n3cccn3)nc(-c3cccs3)n2)cc1OC | 116 to 117

Structure (SMILES) | melting point [°C]
Cc1ccc(-c2nnnn2C)c(S(N)(=O)=O)c1 | 161 to 171
CCc1nc2c(N)nc3ccccc3c2n1OC | 216 to 217
COC(=O)Cc1cc(C)c(C(=O)c2ccc(Cl)cc2)n1C | 122 to 125
CC1(C)CCC(C)(C)c2cc(-c3cc(-c4ccc(C(=O)O)cc4)ccc3OCCCO)ccc21 | 317
O=C(c1ccccc1)N1CCC(CCl)CC1 | 68 to 70
Nc1nc2ccccc2c2c1ncn2CC1(O)CCC1 | > 250
CSc1ccc(-c2coc3ccc(-c4nnc(C)o4)cc23)cc1Cl | 200 to 201
O=C(O)CCC(=O)N1C2CCC(C2)C1C(=O)O (stereo not drawn) | 132 to 135
Cn1cc(Cl)c2c1C(=O)Nc1ccccc1N2 | 172 to 175
CCOC(=O)Nc1nc(C)c(-c2nc3ccccc3c(=O)n2-c2ccccc2)s1 | 248 to 251
O=C1CCC(N2Cc3cc(CNC(=O)Nc4ccccc4)ccc3C2=O)C(=O)N1 (stereo not drawn) | 243 to 245
Cc1ccc(-c2cccc(/C=C/C(=O)Nc3ccc(CN4CCCCC4)cc3)c2)cc1 | 154 to 156
CC(C)CN1CCC(c2ccc(Br)cc2)CC1 | 36 to 37
CCCCCCCC(=O)N[C@@H](Cc1ccc(O)cc1)C(=O)OC | 76
CCCCCC/C=C/c1cccc(CCC(COC(C)=O)(COC(C)=O)NC(C)=O)c1 | 84 to 86
Cc1cc(F)nc(-c2ccc(F)cc2)c1 | 49
CC(C1=NC(C)(C)CO1)c1ccc(-c2ccc(F)cc2F)c(O)c1 (stereo not drawn) | 188 to 194
O=C(NCCO)c1cccc(-c2ccc(F)c3cc(Cc4cccc(C(F)(F)F)c4)oc23)c1 | 159 to 160
CC(C)c1cccc(C(C)C)c1NC(=O)Nc1ccccc1C(=O)NC1CCN(C(c2ccccc2)c2ccccc2)CC1 | 118
CN(C)CCn1c(=O)[nH]c2ccccc21 | 106 to 108
CC1(c2nc(NC3CC3)nc(N3CCOCC3)n2)CC1 | 94 to 95
CC(C)(C)c1ncc(O)c(Cl)n1 | 108
CCOC(=O)\C=C(C)/C=C/C=C(C)/C=C/C1=C(C)C[C@@H](O)CC1(C)C | 93 to 95
CC(=O)OC(=CC(=O)O)CC(=O)Nc1ccccc1 | 125 to 126
CCCCCCCCCCCCCCCCCCn1c(C)c(CC(=O)NN)c2cc(OC)ccc21 | 121 to 123
Cc1noc(NS(=O)(=O)c2c(Cc3ccc4c(c3)OCO4)sc3ccccc23)c1C | 135 to 137

Structure (SMILES) | melting point [°C]
CCc1ccc(N(C(=O)CCl)c2c(F)c(F)cc(F)c2F)cc1 | 72
CN(C)CCCC1(C#N)c2ccccc2COc2ccccc21 (stereo not drawn) | 112 to 114
c1ccc(-c2ncc(-c3nnc(-c4ccccc4)[nH]3)cn2)cc1 | 280 to 282
O=C(CCc1ccccc1)Nc1cc(C(=O)NCc2ccccc2)ccn1 | 177 to 179
Cn1c(C(F)(F)F)nnc1S(C)(=O)=O | 96
COc1ccc(Nc2cc(N3CCCC3)nc(N3CCCC3)n2)cc1 | 162 to 163
CC(C)(C)OC(=O)N1CC2CCCCC(C1)C2=O | 50 to 52
COC(=O)c1nc(-c2ccc(Cl)c(OC)c2F)nc2ncn(C)c12 | 197 to 198
CC(C)(C)c1cc(OCCCCC#N)cc(C(C)(C)C)c1 | 61 to 64
Cc1ccc(OCC(=O)O)c2sc3ccccc3c(=O)c12 | 198 to 235
CC#CCOc1ccc(C(=O)NC[C@@H](C(=O)NO)N2CCN(S(C)(=O)=O)CC2)cc1 | 127
COc1ccc(Cl)n2nc(S(=O)(=O)Cl)nc12 | 149 to 151
COC(=O)c1ccccc1Oc1ccc(S(=O)(=O)NCc2ccnc3ccccc23)cc1 | 163 to 166
O=c1ccc(-c2cccc(Br)c2)nn1CN1CCOCC1 | 110 to 111
C=Cc1cc(O)cc2cc(-c3ccc(O)cc3)oc12 | 182 to 184
CCCN(CCC)C(=O)Cc1ccc(OCc2ccccc2)c([N+](=O)[O-])c1 | 67 to 68
CCC(=O)Nc1ccc(Br)c(-n2nc(CC)n(Cc3ccc(-c4ccccc4S(=O)(=O)NC(=O)OC(C)(C)C)cc3F)c2=O)c1 | 146 to 148
COC1=CC(=O)C=CC1=O | 141 to 143
Cc1oc(-c2ccccc2)nc1COc1ccc(CC2SC(=N)NC2=O)cc1 (stereo not drawn) | 257 to 258
CCOC(=O)[C@H]1O[C@@H]1C(=O)N[C@H](COCC(C)C)C(C)C | 40.5 to 45
CCCNC(=O)C(C)(C)Cc1ccc2c(c1)c(Cc1ccc(C(=O)NS(=O)(=O)c3ccccc3C)cc1OC)cn2CCC | 102 to 112
CCC(C)COC(=O)Oc1ccc(-c2ccc(O)cc2)cc1 (stereo not drawn) | 129 to 130
COc1cc(Oc2cccc(C(F)(F)F)c2)nc(C(=O)NC2CC2)c1 | 106 to 109
Fc1cc(F)c2c(c1)CCC2n1cc[nH]c1=S (stereo not drawn) | 212 to 215
Cc1nnc(-c2ccc3ncn(-c4ccc(OC(F)(F)F)c(Cl)c4)c3c2)o1 | 211 to 212
Fc1cccc(F)c1N1CS/C1=N/N=C\c1ccc(-c2ncn(-c3ccc(OC(F)(F)F)cc3)n2)cc1 | 144 to 146

Structure (SMILES) | melting point [°C]
Cc1cc2ncccc2[nH]1 | 193 to 195
Cc1ccc(SC(C#N)c2ccc(C(=O)c3cccs3)cc2)cc1 (stereo not drawn) | 124 to 126
CCCN(CCC)C1Cc2c[nH]c3ccc(C(=O)c4ccccc4)c(c23)C1 (stereo not drawn) | 150
O=C(NCCCSc1ccncc1)c1ccccc1CO | 110 to 111
O=[N+]([O-])c1ccc2c(c1)CN(C(c1ccccc1)c1ccccc1)C2 | 154 to 155
NCc1cccc(-c2csc(N=C(N)N)n2)n1 | 228 to 229
COC(=O)Cc1cccc2c1Sc1ccccc1S2 | 124 to 125
COc1cc(C(=O)OCc2ccc3nc(N)nc(N)c3c2)cc(OC)c1OC | 223 to 227
CC(C)CCCC(C)C1CCC2C3CC=C4CC(O)CC(O)C4(C)C3CCC12C (stereo not drawn) | 158 to 161
COc1ccc(C(C)=Cc2ccncc2)c2c1OC1(CCCC1)C2 | 85 to 87
C=Cc1ccc(-c2ccccn2)cc1 | 19.3
OCc1cccc(-c2nn(Cc3ccccc3)c3ccccc23)c1 | 98 to 99
CC(=O)[C@H]1C[C@@H](C(N)=S)N(C(=O)OCc2ccc([N+](=O)[O-])cc2)C1 | 168 to 170
CC(=O)CCCCN1CCN(c2ncccn2)CC1 | 44 to 47
CS(=O)c1nnc2c3ccccc3c(-c3ccccc3)nn12 (stereo not drawn) | 215 to 217
COc1ccc(C(=O)N2CCC(N3CC4(CCN(Cc5ccccc5)CC4)c4ccccc43)c3ccccc32)cc1OC (stereo not drawn) | 155 to 157
CCOC(=O)c1[nH]c2ccccc2c1-c1ccc([N+](=O)[O-])cc1 | 218 to 220
Cc1ccc(-c2nc(Cl)nc(Cl)c2-c2ccc(Cl)cc2)cc1 | 223 to 225
Fc1cc(Br)cc(CBr)c1 | 41 to 43
COc1cc(OC)c2c(=O)[nH]c(-c3ccc(CN4C(=O)CNC4=O)cc3)nc2c1 | 317 to 318
CCCCCc1oc(-c2ccc(Cl)cc2)nc1CC(=O)O | 136 to 137
CCCCCCCNC(=O)Oc1ccc2c(c1)CCCN2C | 60
CCCCCOc1ccc(-c2ccc(CC[C@H]3CC[C@H](CCC)CC3)c(F)c2F)cc1 | 27
O=C(O)CCc1cn(Cc2ccccc2)c2ccccc12 | 110 to 112
CCOC(=O)Nc1ccccc1SCc1ncon1 | 55
